The numbers were not newly measured in US20110020252A1, “METHOD OF LONG LASTING HUMAN SKIN TANNING” (priority 2010, published 2011), which cites them from elsewhere.

This series deals with gram-positive cocci (including methicillin-resistant Staphylococcus aureus-MSRA), some gram-negative organisms, Legionella, many mycobacterium and some fungi. The note with it: cited from earlier work.

Turning to `CO[C@H]1/C=C/O[C@@]2(C)Oc3c(C)c(O)c4c(O)c(c(/C=N/N5CCN(C)CC5)c(O)c4c3C2=O)NC(=O)/C(C)=C\C=C\[C@H](C)[C@H](O)[C@@H](C)[C@@H](O)[C@@H](C)[C@H](OC(C)=O)[C@@H]1C` [Rifampin], the antimicrobial activity entry is given as “good activity”.
